Source: ChEMBL document CHEMBL2363022, “Malaria Box Schistosomiasis Screening Data” (2013)

Legend:
Format in all cases: functional
[1] = system: Schistosoma mansoni; assay: MMV: Toxicity @ 5 uM to 4-5 Schistosoma mansoni adult males after 24 h on a scale of 0 (none) - 4 (most). Includes short descriptors of effects as judged visually (PMID:19597541). Only those Malaria box 'drug-like' cpds yielding the most severe phenotypes vs. somules were tested. Caffrey group UCSF.
[2] = system: Schistosoma mansoni; parameters: scale not given here
[3] = system: Schistosoma mansoni; assay: MMV: Toxicity @ 5 uM to 4-5 Schistosoma mansoni adult males after 72 h on a scale of 0 (none) - 4 (most). Includes short descriptors of effects as judged visually (PMID:19597541). Only those Malaria box 'drug-like' cpds yielding the most severe phenotypes vs. somules were tested. Caffrey group UCSF.
[4] = system: Schistosoma mansoni; assay: (§1) MMV: Motility assay. Percent change (relative to DMSO controls) @ 5 uM of movement of 4-5 Schistosoma mansoni adult males after 48 h as measured by the Consensus Voting Luminance Difference algorithm available on WormAssay (PMID:22303493). Occasional incongruence ocurrs between the motility scores and the visually adjudicated 'toxicity scores'. In these cases the 'toxicity score' should be prioritized. Only those Malaria box 'Drug-like' cpds yielding the most severe phenotypes vs. somules were tested. Caffrey group UCSF.
[5] = system: Schistosoma mansoni; assay: as §1, with “72” for “48”
[6] = system: Schistosoma mansoni; assay: as §1, with “24” for “48”
[7] = system: Schistosoma mansoni; parameters: scale not given here; remark: listed apart in the source
[8] = system: Schistosoma mansoni; parameters: scale not given here; remark: listed apart in the source
[9] = system: Schistosoma mansoni; assay: MMV: Toxicity @ 5 uM to 4-5 Schistosoma mansoni adult males after 48 h on a scale of 0 (none) - 4 (most). Includes short descriptors of effects as judged visually (PMID:19597541). Only those Malaria box 'drug-like' cpds yielding the most severe phenotypes vs. somules were tested. Caffrey group UCSF.

| Structure (SMILES) | Toxicity [1] | Toxicity [2] | Toxicity [3] | Motility [4] | Motility [5] | Motility [6] | Toxicity [7] | Toxicity [8] | Toxicity [9] |
| --- | --- | --- | --- | --- | --- | --- | --- | --- | --- |
| COc1cc2c(cc1OC)C1=NNC(=O)C1=NC(C)(C)C2 | 0 | 4 | 0 | 120 | No effect | 140 | 4 | 0 | 0 |
| COc1ccc(CNC2CCN(c3ccc(NC(=O)c4cccc(Cl)c4)cc3)CC2)cc1OC | 0 | 4 | 0 | 45.4 | 49 | 104.8 | 4 | 2 | 0 |
| Cc1cccc(-n2ncc3c(O)nc(-n4nc(C)cc4NC(=O)c4cc5ccccc5o4)nc32)c1 | 0 | 4 | 4 | 1 | Slow, on sides, dark, tegument damage | 6 | 1 | 1 | 3 |
| OC(CNC1CCCC1)Cn1c2ccccc2c2ccccc21 (stereo not drawn) | 0 | 4 | 0 | 83 | No effect | No effect | 4 | 1 | 0 |
| COc1ccc(CCN2CCC(CN(C)Cc3cnn(-c4ccccc4)c3)CC2)cc1 | 0 | 1 | 0 | 114.8 | 70.2 | 33.8 | 1 | 2 | 0 |
| CCn1nc(-c2ccc(C(=O)OC)cc2)nc2c(=O)n(C)c(=O)nc1-2 | 0 | 4 | 0 | 97 | 78.5 | 99.1 | 4 | 4 | 0 |
| O=C(NC(c1ccccc1)c1ccc2cccnc2c1O)c1ccccc1 (stereo not drawn) | 0 | 4 | 4 | 16.1 | Slow, on sides, dark, tegument damage | 74 | 3 | 0 | 3 |
| Cc1cc(N2CCCC2)nc(Nc2ccc(NC(=O)CCc3ccccc3)cc2)n1 | 2 | 4 | 1 | 104.8 | Slow | 28.9 | 4 | 0 | 3 |
| CN(C)CCCNCc1ccc(-c2ccc(F)c(Cl)c2)o1.Cl | 2 | 3 | 2 | 62.2 | 65.7 | 26.2 | 3 | 2 | 2 |
| Cc1ccc(CN2CCC(C(=O)Nc3ccc(-c4cc5ccccc5[nH]4)cc3)CC2)o1 | 0 | 4 | 0 | 126.5 | No effect | 122.1 | 4 | 0 | 0 |
| Oc1ccccc1CN1CCC2(CCCN(Cc3ccccc3F)C2)C1 (stereo not drawn) | 1 | 3 | 1 | 150.6 | overactive | 175.4 | 3 | 2 | 1 |
| COc1ccc2nc(C)cc(Nc3ccc(Cl)cc3)c2c1 | 2 | 4 | 3 | 87.4 | Slow, on sides, dark | 75.2 | 4 | 3 | 2 |
| CN(C)CCNc1cc(-c2ccccc2)nc2ccccc12 | 1 | 1 | 0 | 68.3 | No effect | 151.9 | 2 | 2 | 0 |
| COc1ccc(-c2nc3cc(Cc4ccc5[nH]c(-c6ccc(OC)cc6)nc5c4)ccc3[nH]2)cc1 | 3 | 4 | 4 | 24.7 | 12.4 | 17.2 | 4 | 3 | 3 |
| CC(C)=CCN1CCC(C(=O)Nc2ccc(-c3nc4ccccc4[nH]3)cc2)CC1 | 0 | 1 | 0 | 93.7 | 119 | 139.1 | 1 | 1 | 0 |
| CC(C)(C)c1ccc(C(=O)Nc2nc3ccccc3s2)cc1 | 0 | 0 | 0 | 113.8 | 118 | 58.5 | 0 | 2 | 0 |
| O=C(O)C(=O)O.Oc1ccc(Br)cc1CN1CCN(Cc2cccc(F)c2)CC1 | 1 | 1 | 1 | 202.5 | Overactive | 233 | 1 | 1 | 1 |
| CC(C)(C)CC(C)(C)NCC(O)COc1ccc2c(c1)CCC2.Cl (stereo not drawn) | 0 | 4 | 1 | 153 | overactive | 146 | 2 | 2 | 1 |
| COc1ccc(Nc2nc(NCc3ccccc3)c3ccccc3n2)cc1 | 0 | 4 | 0 | 105.7 | No effect | 100 | 4 | 2 | 0 |
| Cl.OC(CNCc1ccccc1)Cn1c2ccccc2c2ccccc21 (stereo not drawn) | 0 | 4 | 0 | 49.4 | No effect | 38.1 | 4 | 4 | 0 |
| CCN(CC)CCCNc1nc(-c2ccc(Cl)cc2)nc2ccccc12 | 0 | 4 | 0 | 99.5 | 56 | 86.7 | 4 | 2 | 0 |
| O=c1nc(C=Cc2ccc(Br)cc2)oc2ccccc12 | 0 | 2 | 0 | 98.7 | No effect | 132 | 2 | 2 | 0 |
